Laboratory results taken from the NIST ThermoML archive (doi:10.1016/j.jct.2009.07.018).

Assays:
[1] = Maximal bubble pressure
[2] = xn = mol fraction of the nth substance listed; conditions: Maximal bubble pressure

CCCCCCCCCC [decane]
[1]
Conditions | surface tension liquid-gas [mN/m]
293.15 K | 23.83
303.15 K | 22.91
313.15 K | 21.91
323.15 K | 21.07
333.15 K | 20.15
343.15 K | 19.23

CCCCC [pentane]
[1]
Conditions | surface tension liquid-gas [mN/m]
293.15 K | 15.94
298.15 K | 15.3
305.15 K | 14.36
318.15 K | 12.6
323.15 K | 11.95

CCCCC [pentane] + CCCCCCC
surface tension liquid-gas [mN/m], [2]
Conditions | x1 = 0.165 | x1 = 0.308 | x1 = 0.432 | x1 = 0.542 | x1 = 0.64 | x1 = 0.727 | x1 = 0.877 | x1 = 0.971
293.15 K | 19.62 | 19.11 | 18.6 | 18.15 | 17.71 | 17.29 | 16.65 | 16.08
298.15 K | 18.98 | 18.5 | 17.9 | 17.35 | 16.9 | 16.48 | 15.85 | 15.29
305.15 K | 18.16 | 17.64 | 17.13 | 16.64 | 16.17 | 15.74 | 14.97 | 14.49
318.15 K | 16.91 | 16.24 | 15.66 | 15.1 | 14.57 | 14.08 | 13.23 | 12.7
323.15 K | 16.33 | 15.55 | 14.88 | 14.4 | 13.93 | 13.41 | 12.6 | 12.12

CCCCCCC [heptane]
[1]
Conditions | surface tension liquid-gas [mN/m]
283.15 K | 21.11
293.15 K | 20.12
303.15 K | 19.13
313.15 K | 18.11
323.15 K | 17.15

O [water]
[1]
Conditions | surface tension liquid-gas [mN/m]
293.15 K | 72.84
298.15 K | 72.03
303.15 K | 71.24
308.15 K | 70.44
313.15 K | 69.61
323.15 K | 67.96
